Patent US9447135B2, “Semi-synthetic mithramycin derivatives with anti-cancer activity” (UNIVERSITY OF KENTUCKY RESEARCH FOUNDATION, priority 2012, dated 2016)
Read-outs that look alike come from different tables or passages of the source.

Experiments:
[1] = system: TC32 Ewing sarcoma cell line; assay: 72 hour cytotoxicity, TC32; type: cell-based; details: Ewing sarcoma cell line TC32, 72 hour
Method: (§1) The cytotoxicity of a subgroup of the MTM SA analogues was tested against various Ewing sarcoma cell lines and non-Ewing sarcoma cell lines over a 72 hour period. Each analogue was checked individually with a range of concentrations to determine the IC50 of the molecule in actively growing cell cultures.

[2] = system: 5838 Ewing sarcoma cell line; assay: 72 hour cytotoxicity, 5838; type: cell-based; details: Ewing sarcoma cell line 5838, 72 hour
Method: as §1

[3] = system: SK-ES-1 Ewing sarcoma cell line; assay: 72 hour cytotoxicity, SK-ES-1; type: cell-based; details: Ewing sarcoma cell line SK-ES-1, 72 hour
Method: as §1

[4] = system: A673 Ewing sarcoma cell line; assay: 72 hour cytotoxicity, A673; type: cell-based; details: Ewing sarcoma cell line A673, 72 hour
Method: as §1

[5] = system: TC71 Ewing sarcoma cell line; assay: 72 hour cytotoxicity, TC71; type: cell-based; details: Ewing sarcoma cell line TC71, 72 hour
Method: as §1

[6] = system: RDES Ewing sarcoma cell line; assay: 72 hour cytotoxicity, RDES; type: cell-based
Method: as §1

[7] = 72 hour cytotoxicity, RH30; type: cell-based; details: Ewing sarcoma cell line RH30, 72 hour; read-out: IC50 (nM) RH 30
Method: as §1

[8] = system: ES-2 Ewing sarcoma cell line; assay: 72 hour cytotoxicity, ES-2; type: cell-based; details: Ewing sarcoma cell line ES-2, 72 hour
Method: as §1

[9] = system: ES-3 Ewing sarcoma cell line; assay: 72 hour cytotoxicity, ES-3; type: cell-based; details: Ewing sarcoma cell line ES-3, 72 hour
Method: as §1

[10] = system: ES-4 Ewing sarcoma cell line; assay: 72 hour cytotoxicity, ES-4; type: cell-based; details: Ewing sarcoma cell line ES-4, 72 hour
Method: as §1

[11] = system: ES-7 Ewing sarcoma cell line; assay: 72 hour cytotoxicity, ES-7; type: cell-based; details: Ewing sarcoma cell line ES-7, 72 hour
Method: as §1

[12] = system: ES-8 Ewing sarcoma cell line; assay: 72 hour cytotoxicity, ES-8; type: cell-based; details: Ewing sarcoma cell line ES-8, 72 hour
Method: as §1

[13] = system: A549, human non-small cell lung cancer cells; assay: 72 hour cytotoxicity, A549 (resazurin); type: cell-based; details: non-Ewing sarcoma cell line A549, 72 hour
Method: The cytotoxic effects of the side chain modifications of SA were investigated in order to determine whether the modification were beneficial to the drug structure. All cytotoxicity assays were performed with A549, human non-small cell lung cancer cells. A549 cells were cultured as specified from ATCC at 37° C., 5% CO2. The cells were added to a 96 well plate (5,000 cells/well) and permitted to attach for 24 h. After 24 h culture media were replaced with the side chain modified MTM SA derivative containing media at differing concentrations. The cells were incubated with the drug containing media for 72 hrs total (n=8). Cell viability was determined using a resazurin assay that signifies mitochondrial metabolic activity in living cells. […] of a 1 mM resazurin solution in PBS was added to the control and analogue-treated cells at the end of the treatment period. Cell viability was determined three hours later by reading the fluorescence at 560 nm (Ex)/590 nm (Em). The fluorescence signals were quantified using a Spectramax M5 plate reader (Molecular Devices) equipped with a SoftMaxPro software. Cytotoxicity was determined by calculating the half maximal inhibitory concentration (IC50) of each sample.
as §1

[14] = system: U118 non-Ewing sarcoma cell line; assay: 72 hour cytotoxicity, U118; type: cell-based; details: non-Ewing sarcoma cell line U118, 72 hour
Method: as §1

[15] = system: PC3 non-Ewing sarcoma cell line; assay: 72 hour cytotoxicity, PC3; type: cell-based; details: non-Ewing sarcoma cell line PC3, 72 hour
Method: as §1

[16] = system: DU145 non-Ewing sarcoma cell line; assay: 72 hour cytotoxicity, DU145; type: cell-based; details: non-Ewing sarcoma cell line DU145, 72 hour
Method: as §1

[17] = system: C42 non-Ewing sarcoma cell line; assay: 72 hour cytotoxicity, C42; type: cell-based; details: non-Ewing sarcoma cell line C42, 72 hour
Method: as §1

[18] = system: VCaP non-Ewing sarcoma cell line; assay: 72 hour cytotoxicity, VCaP; type: cell-based
Method: as §1

[19] = system: HCT-116 non-Ewing sarcoma cell line; assay: 72 hour cytotoxicity, HCT-116; type: cell-based; details: non-Ewing sarcoma cell line HCT-116, 72 hour
Method: as §1

[20] = system: OVCAR-8 non-Ewing sarcoma cell line; assay: 72 hour cytotoxicity, OVCAR-8; type: cell-based; details: non-Ewing sarcoma cell line OVCAR-8, 72 hour
Method: as §1

[21] = target: T1, EWS-FLI1 promoter occupancy upstream from Nr0b1, Tgfbr2, and Rcor1 genes in TC32 cells (Homo sapiens, UniProt Q01543+Q01844); assay: EWS-FLI1 promoter occupancy by ChIP-RTPCR; type: cell-based
T1 construct: containing the 5′ region of EWS (Ewing sarcoma breakpoint region 1) and the 3′ ETS region of Fli-1; N-terminal part of EWS (EWSR1, Q01844), natural fusion partner from the translocation; endogenous in cells; host or cells: TC32 Ewing sarcoma cells
T1 sequence (Q01844+Q01543 fused): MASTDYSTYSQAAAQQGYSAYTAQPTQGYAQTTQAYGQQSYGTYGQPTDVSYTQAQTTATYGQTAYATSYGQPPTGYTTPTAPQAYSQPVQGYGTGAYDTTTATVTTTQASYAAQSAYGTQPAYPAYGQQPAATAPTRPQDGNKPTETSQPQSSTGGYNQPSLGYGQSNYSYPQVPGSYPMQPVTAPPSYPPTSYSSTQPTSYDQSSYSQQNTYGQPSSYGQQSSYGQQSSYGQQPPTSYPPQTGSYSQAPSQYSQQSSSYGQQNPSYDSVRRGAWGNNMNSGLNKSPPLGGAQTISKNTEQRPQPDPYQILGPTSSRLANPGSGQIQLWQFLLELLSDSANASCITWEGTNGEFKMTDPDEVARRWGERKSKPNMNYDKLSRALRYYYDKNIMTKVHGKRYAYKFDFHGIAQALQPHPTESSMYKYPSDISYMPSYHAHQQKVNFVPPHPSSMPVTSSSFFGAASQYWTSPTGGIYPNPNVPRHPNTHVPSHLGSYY
Method: (§2) Studies were conducted using MTM and lead analogs (mithramycin-SK (MTM-SK), mithramycin-SA-tryptophan (MTM-SA-Trp), and mithramycin-SA-phenylalanine (MTM-SA-Phe)). EWS-FLI1 promoter occupancy was investigated using chromatin immune precipitation real time PCR (ChIP-RTPCR). The effect of drug treatment on expression of genes controlled by EWSFLI1 was evaluated by quantitative real-time PCR (qRT-PCR) (FIG. 11). The effect of treatment with 100 nM of drug for 24 hours on cell cycle distribution was also compared among analogs (FIG. 12(b)). […] In addition, the maximum tolerated dose (MTD) and the effect of treatment on plasma total-calcium were used to assess relative toxicity in mice.
(§3) EWS-FLI1 promoter occupancy upstream from Nr0b1, Tgfbr2, and Rcor1 genes was evaluated in Ewing sarcoma cells (TC32 cells) by ChIP-RTPCR. […] (FIG. 11). […] (FIG. 12(a)). Furthermore, the effect of drug treatment appears to lead to differences in cell-cycle progression. […] (FIG. 12(b)).

[22] = system: genes controlled by EWS-FLI1 in TC32 cells; assay: Expression of genes controlled by EWS-FLI1 by qRT-PCR; type: cell-based; details: 6 hours, dose dependent
Method: FIG. 11A, FIG. 11B, FIGS. 11C, 11D, and 11E provide a series of graphs showing that MTM analogs have increased cytoxicity and distinct cell cycle distribution in Ewing sarcoma. The graphs show relative gene expression in TC32 cells treated with MTM analogs. Three genes controlled by the EWS-FLI1 transcription factor were investigated by qRT-PCR at four different treatment concentrations for 6 hours. CCK served as a negative control.
as §2, §3

TC32 cells = assay: Cell cycle distribution, FACS analysis; type: cell-based; details: 100 nM of drug for 24 hours
Method: FIG. 12(b) is a FACs analysis of TC32 cells treated with 100 nM of drug for 24 hours.
as §2, §3

Ewing cell lines = assay: In vitro efficacy, GI50 (72-hr) in Ewing cell lines; type: cell-based; details: Ewing cell lines (n=8)
[23] = system: Ewing sarcoma (TC32, 5838, SKES1) and non-Ewing (A459 (lung) and PC3 (prostate)) cancer cell lines; assay: Selectivity assay, Ewing sarcoma versus non-Ewing cell panel (72 hr cytotoxicity)
[24] = system: several cancer cell lines; details: cited from earlier work

## COC(=O)C(Cc1cccc2[nH]ccc12)NC(=O)[C@@H](OC)[C@@H]1Cc2cc3cc(OC4CC(OC5CC(O)C(O)C(C)O5)C(O)C(C)O4)c(C)c(O)c3c(O)c2C(=O)[C@H]1OC1CC(OC2CC(OC3CC(C)(O)C(O)C(C)O3)C(O)C(C)O2)C(O)C(C)O1 (some centres unmarked) [MTMSA-Trp]
[1]; Homo sapiens, TC-32
  IC50: 18 nM
[2]
  IC50: 10 nM
[3]; Homo sapiens, SK-ES1
  IC50: 38 nM
[4]; Homo sapiens
  IC50: 44 nM
[5]; TC-71
  IC50: 34 nM
[6]; RD-ES
  IC50: 39 nM
[7]
  IC50: 48 nM
[8]
  IC50: 63 nM
[9]
  IC50: 64 nM
[10]
  IC50: 33 nM
[11]
  IC50: 41 nM
[12]
  IC50: 40 nM
[13]; Homo sapiens
  IC50: 87 nM
[14]
  IC50: 56 nM
[15]
  IC50: 45 nM
[16]; Homo sapiens, DU-145
  IC50: 31 nM
[17]
  IC50: 96 nM
[18]; Homo sapiens
  IC50: 20 nM
[19]; Homo sapiens
  IC50: 23 nM
[20]; Homo sapiens
  IC50: 72 nM
[21]
  effect on FLI1 binding to promoters (ChIP-RTPCR): the most destabilizing
[22]
  rank-order of efficiency of mRNA down-regulation (qRT-PCR): MTM-SA-Trp>MTM=MTM-SK
TC32 cells
  cell cycle distribution: increased S-phase accumulation
Ewing cell lines
  potency (GI50) among Ewing cell lines compared to other analogs: relatively higher potency (lower GI50)
[23]; FIG. 9, right panel
  selectivity against Ewing sarcoma cells relative to non-Ewing cells: 9 fold
[23]; against Ewing sarcoma cells, relative to MTM
  more potent than MTM: about 3 fold
[23]; relative to MTM, 72 hr
  higher selectivity than MTM against Ewing sarcoma relative to non-Ewing cell lines: 3 fold

## CO[C@@H]([C@@H]1Cc2cc3cc(O[C@H]4C[C@@H](O[C@H]5C[C@@H](O)[C@H](O)[C@@H](C)O5)[C@H](O)[C@@H](C)O4)c(C)c(O)c3c(O)c2C(=O)[C@H]1O[C@H]1C[C@@H](O[C@H]2C[C@@H](O[C@H]3C[C@](C)(O)[C@H](O)[C@@H](C)O3)[C@@H](O)[C@@H](C)O2)[C@H](O)[C@@H](C)O1)[C@@H](O)C(C)=O [MTMSK, reference compound]
[1]; read-out: IC50 (nM) TC 32
  IC50: 23 nM
[2]
  IC50: 23 nM
[3]
  IC50: 25 nM
[4]
  IC50: 37 nM
[5]
  IC50: 31 nM
[6]
  IC50: 40 nM
[7]
  IC50: 62 nM
[8]
  IC50: 39 nM
[9]
  IC50: 56 nM
[10]
  IC50: 32 nM
[11]
  IC50: 42 nM
[12]
  IC50: 44 nM
[13]
  IC50: 30 nM
[15]
  IC50: 37 nM
[16]; read-out: IC50 (nM) DU 145
  IC50: 32 nM
[17]
  IC50: 89 nM
[18]
  IC50: 36 nM
[19]
  IC50: 31 nM
[20]
  IC50: 29 nM
[21]
  effect on FLI1 binding to promoters (ChIP-RTPCR): mostly stabilize FLI1
[22]
  rank-order of efficiency of mRNA down-regulation (qRT-PCR): MTM-SA-Trp>MTM=MTM-SK
TC32 cells
  cell cycle distribution: primarily in G1/G2 phase
[24]
  activity compared to the parent MTM: increased activity
